According to ChEMBL document CHEMBL3045518, “Synthesis of novel 3-[5-ethyl-2-(2-phenoxy-ethyl)-pyridin]-5-substituted isoxazoline libraries via 1,3-dipolar cycloaddition and evaluation of antimicrobial activities” (2006):
Values after ≈ are worked out from the molar mass of the structure shown.

Key:
Assay type in all cases: functional
Pseudomonas fluorescens [1] = assay: Antibacterial activity against Pseudomonas fluorescens at 25 ug/disk after 24 hr by disk diffusion method; conditions: read-out: DIZ
Escherichia coli [2] = assay: Antibacterial activity against Escherichia coli at 25 ug/disk after 24 hr by disk diffusion method; conditions: read-out: DIZ
Bacillus subtilis [3] = assay: Antibacterial activity against Bacillus subtilis at 25 ug/disk after 24 hr by disk diffusion method; conditions: read-out: DIZ
Pseudomonas fluorescens [4] = assay: Antibacterial activity against Pseudomonas fluorescens by microdilution method
Escherichia coli [5] = assay: Antibacterial activity against Escherichia coli by microdilution method
Bacillus subtilis [6] = assay: Antibacterial activity against Bacillus subtilis by microdilution method
Penicillium sp. [7] = assay: Antifungal activity against Penicillium sp. at 25 ug/disk after 48 hr by disk diffusion method; conditions: read-out: DIZ
Fusarium verticillioides [8] = assay: Antifungal activity against Fusarium verticillioides at 25 ug/disk after 48 hr by disk diffusion method; conditions: read-out: DIZ
Trichoderma [9] = assay: Antifungal activity against Trichoderma sp. at 25 ug/disk after 48 hr by disk diffusion method; conditions: read-out: DIZ
Fusarium oxysporum [10] = assay: Antifungal activity against Fusarium oxysporum at 25 ug/disk after 48 hr by disk diffusion method; conditions: read-out: DIZ
Aspergillus flavus [11] = assay: Antifungal activity against Aspergillus flavus at 25 ug/disk after 48 hr by disk diffusion method; conditions: read-out: DIZ
Aspergillus niger [12] = assay: Antifungal activity against Aspergillus niger at 25 ug/disk after 48 hr by disk diffusion method; conditions: read-out: DIZ
Xanthomonas oryzae [13] = assay: Antibacterial activity against Xanthomonas oryzae at 25 ug/disk after 24 hr by disk diffusion method; conditions: read-out: DIZ
[14] = test system: Xanthomonas euvesicatoria pv. sesami; assay: Antibacterial activity against Xanthomonas campestris pv. sesami at 25 ug/disk after 24 hr by disk diffusion method; conditions: read-out: DIZ
Penicillium sp. [15] = assay: Antifungal activity against Penicillium sp. after 48 hr by microdilution method
Fusarium verticillioides [16] = assay: Antifungal activity against Fusarium verticillioides after 48 hr by microdilution method
Trichoderma [17] = assay: Antifungal activity against Trichoderma sp. after 48 hr by microdilution method
Aspergillus flavus [18] = assay: Antifungal activity against Aspergillus flavus after 48 hr by microdilution method
Fusarium oxysporum [19] = assay: Antifungal activity against Fusarium oxysporum after 48 hr by microdilution method
Xanthomonas oryzae [20] = assay: Antibacterial activity against Xanthomonas oryzae by microdilution method
Aspergillus niger [21] = assay: Antifungal activity against Aspergillus niger after 48 hr by microdilution method
[22] = test system: Xanthomonas euvesicatoria pv. sesami; assay: Antibacterial activity against Xanthomonas campestris pv. sesami by microdilution method

SMILES | zone of inhibition at 25 µg/disc (Pseudomonas fluorescens [1]) [mm] | zone of inhibition at 25 µg/disc (Escherichia coli [2]) [mm] | zone of inhibition at 25 µg/disc (Bacillus subtilis [3]) [mm] | MIC (Pseudomonas fluorescens [4]) [µg/mL] | MIC (Escherichia coli [5]) [µg/mL] | MIC (Bacillus subtilis [6]) [µg/mL] | zone of inhibition at 25 µg/disc (Penicillium sp. [7]) [mm] | zone of inhibition at 25 µg/disc (Fusarium verticillioides [8]) [mm] | zone of inhibition at 25 µg/disc (Trichoderma [9]) [mm] | zone of inhibition at 25 µg/disc (Fusarium oxysporum [10]) [mm] | zone of inhibition at 25 µg/disc (Aspergillus flavus [11]) [mm] | zone of inhibition at 25 µg/disc (Aspergillus niger [12]) [mm] | zone of inhibition at 25 µg/disc (Xanthomonas oryzae [13]) [mm] | zone of inhibition at 25 µg/disc [14] [mm] | MIC (Penicillium sp. [15]) [µg/mL] | MIC (Fusarium verticillioides [16]) [µg/mL] | MIC (Trichoderma [17]) [µg/mL] | MIC (Aspergillus flavus [18]) [µg/mL] | MIC (Xanthomonas oryzae [20]) [µg/mL] | MIC [22] [µg/mL] | other results
CN[C@@H]1[C@H](O[C@H]2[C@H](O[C@H]3[C@H](O)[C@@H](O)[C@H](N=C(N)N)[C@@H](O)[C@@H]3N=C(N)N)O[C@@H](C)[C@]2(O)C=O)O[C@@H](CO)[C@H](O)[C@H]1O [STREPTOMYCIN] | 17 | 14 | 13 | 12 (≈ 20.6 µM) | 13 (≈ 22.4 µM) | 19 (≈ 32.7 µM) |  |  |  |  |  |  |  |  |  |  |  |  |  |  | 
CCc1ccc(CCOc2ccc(C3=NOC(Cc4ccc5c(c4)OCO5)C3)cc2)nc1 (stereo not drawn) | 7 | 6 | 5 | 20 (≈ 46.5 µM) | 22 (≈ 51.1 µM) | 25 (≈ 58.1 µM) | 2 | 3 | 4 | 4 | 3 | 3 | 3 | 4 | 21 (≈ 48.8 µM) | 18 (≈ 41.8 µM) | 20 (≈ 46.5 µM) | 21 (≈ 48.8 µM) | 22 (≈ 51.1 µM) | 21 (≈ 48.8 µM) | MIC (Fusarium oxysporum [19]): 22 µg/mL (≈ 51.1 µM); MIC (Aspergillus niger [21]): 22 µg/mL (≈ 51.1 µM)
CCc1ccc(CCOc2ccc(C3=NOC(C(=O)OC)C3)cc2)nc1 (stereo not drawn) | 5 | 6 | 5 | 22 (≈ 62.1 µM) | 24 (≈ 67.7 µM) | 27 (≈ 76.2 µM) | 2 | 3 | 5 | 4 | 4 | 3 | 3 | 3 | 24 (≈ 67.7 µM) | 22 (≈ 62.1 µM) | 20 (≈ 56.4 µM) | 24 (≈ 67.7 µM) | 27 (≈ 76.2 µM) | 22 (≈ 62.1 µM) | MIC (Fusarium oxysporum [19]): 20 µg/mL (≈ 56.4 µM); MIC (Aspergillus niger [21]): 22 µg/mL (≈ 62.1 µM)
CN(C)[C@@H]1C(O)=C(C(N)=O)C(=O)[C@@]2(O)C(O)=C3C(=O)c4c(O)cccc4[C@@](C)(O)[C@H]3C[C@@H]12 [TETRACYCLINE] |  |  |  |  |  |  |  |  |  |  |  |  | 12 | 12 |  |  |  |  | 13 (≈ 29.3 µM) | 9 (≈ 20.3 µM) | 
CCc1ccc(CCOc2ccc(C3=NOC(C#N)C3)cc2)nc1 (stereo not drawn) | 6 | 7 | 7 | 23 (≈ 71.6 µM) | 21 (≈ 65.3 µM) | 27 (≈ 84 µM) | 2 | 10 | 4 | 5 | 3 | 2 | 4 | 5 | 20 (≈ 62.2 µM) | 18 (≈ 56 µM) | 20 (≈ 62.2 µM) | 21 (≈ 65.3 µM) | 22 (≈ 68.5 µM) | 20 (≈ 62.2 µM) | MIC (Fusarium oxysporum [19]): 19 µg/mL (≈ 59.1 µM); MIC (Aspergillus niger [21]): 20 µg/mL (≈ 62.2 µM)
CCc1ccc(CCOc2ccc(C3=NOC(CO)C3)cc2)nc1 (stereo not drawn) | 17 | 13 | 14 | 12 (≈ 36.8 µM) | 14 (≈ 42.9 µM) | 18 (≈ 55.1 µM) | 11 | 12 | 15 | 15 | 9 | 8 | 13 | 13 | 9 (≈ 27.6 µM) | 10 (≈ 30.6 µM) | 13 (≈ 39.8 µM) | 16 (≈ 49 µM) | 12 (≈ 36.8 µM) | 10 (≈ 30.6 µM) | MIC (Fusarium oxysporum [19]): 10 µg/mL (≈ 30.6 µM); MIC (Aspergillus niger [21]): 15 µg/mL (≈ 46 µM)
